According to PubChem BioAssay AID1347408 (Pan Lab, Icahn School of Medicine at Mount Sinai, 2020):
Results filed as inconclusive are left out. Calls of active or inactive are those of the source.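 The calls were made as follows: active = IC50 half-inhibiting concentration at or below 10 micromolar; inconclusive = IC50 above 10 and up to 20 micromolar; inactive = IC50 above 20 micromolar.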

Each molecule was assayed against E3 ubiquitin-protein ligase RBX1 (Homo sapiens) + Cullin-1 (Homo sapiens) (UniProt P62877+Q13616) (assay: inhibition of cullin E3 di-ubiquitin formation – biochemical, FRET, E1/Cdc34 cascade, dose response (AID 1347408)). Settings: in vitro di-Ub FRET, E1/Cdc34/ROC1-CUL1 CTD.
E3 ubiquitin-protein ligase RBX1 (Homo sapiens) + Cullin-1 (Homo sapiens), sequence (P62877 whole entry, looked up): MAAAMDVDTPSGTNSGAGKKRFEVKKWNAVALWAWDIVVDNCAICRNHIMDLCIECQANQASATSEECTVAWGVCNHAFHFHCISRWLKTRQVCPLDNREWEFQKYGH
E3 ubiquitin-protein ligase RBX1 (Homo sapiens) + Cullin-1 (Homo sapiens), sequence (Q13616 whole entry, looked up): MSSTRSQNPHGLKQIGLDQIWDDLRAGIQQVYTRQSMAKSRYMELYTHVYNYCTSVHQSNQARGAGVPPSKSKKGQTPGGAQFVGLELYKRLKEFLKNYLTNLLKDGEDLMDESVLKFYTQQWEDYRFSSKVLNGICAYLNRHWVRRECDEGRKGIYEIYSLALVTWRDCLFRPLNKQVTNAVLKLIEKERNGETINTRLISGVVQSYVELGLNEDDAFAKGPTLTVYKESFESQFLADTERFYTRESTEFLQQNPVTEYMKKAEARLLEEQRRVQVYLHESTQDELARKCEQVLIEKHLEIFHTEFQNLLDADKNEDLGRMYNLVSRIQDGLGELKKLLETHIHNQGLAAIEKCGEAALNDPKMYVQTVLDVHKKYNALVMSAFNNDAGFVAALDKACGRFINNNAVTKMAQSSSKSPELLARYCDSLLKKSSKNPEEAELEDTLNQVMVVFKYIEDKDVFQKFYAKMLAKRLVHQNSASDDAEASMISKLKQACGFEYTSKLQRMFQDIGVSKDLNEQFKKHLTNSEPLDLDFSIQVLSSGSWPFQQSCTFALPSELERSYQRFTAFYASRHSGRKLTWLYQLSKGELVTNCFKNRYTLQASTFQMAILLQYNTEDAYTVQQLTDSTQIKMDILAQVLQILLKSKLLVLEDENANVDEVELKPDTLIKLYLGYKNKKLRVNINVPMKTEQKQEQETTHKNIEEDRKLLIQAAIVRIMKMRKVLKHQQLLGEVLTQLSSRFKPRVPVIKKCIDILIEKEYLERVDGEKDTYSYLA

Row | Structure (SMILES) | IC50
1 | CNc1ccccc(C(=O)C=Cc2ccc3c(c2)OCO3)c1=O | inactive
2 | Cc1ccc([C@@H]2Nc3c(ccc(C(=O)O)c3C)[C@@H]3C=CC[C@@H]32)cc1 | inactive
3 | CCCCCCCCCOc1ccc(C#CC(=O)O)cc1 | 4.2 µM
4 | CN(CCC(=O)C=Cc1ccc(Cl)c(Cl)c1)CCc1ccc2c(c1)OCO2 | inactive
5 | NCCCSc1nc2c(c(=O)n1Cc1ccccc1)C1(CCCCC1)Cc1ccccc1-2 | inactive
6 | CCOc1ccc2nc3cc(NC(=O)c4ccco4)ccc3c(N)c2c1 | 4.8 µM
7 | Cc1ccc(NC(=O)c2ccc(Cl)cc2Cl)c(S(=O)(=O)O)c1 | inactive
8 | Cc1ccc2c(c1)-c1c(c(C(=O)N3CCN(c4cc(C)ccc4C)CC3)nn1C)CS2 | inactive
9 | COc1ccc(C=C2C(=O)N(Cc3ccco3)C(=O)N(C(C)C)C2=O)cc1 | inactive
10 | CCOc1cccc2c1N[C@@H](c1ccc(C(=O)O)cc1)[C@H]1CC=C[C@@H]21 | inactive
11 | CCNc1ccc(Br)cc(C(=O)/C=C/c2c(Cl)cccc2Cl)c1=O | inactive
